In patent EP4817687A2, “NUCLEOTIDE AND NUCLEOSIDE THERAPEUTIC COMPOSITIONS AND USES RELATED THERETO” (Emory University, priority 2013, dated 2015):
Read-outs that look alike come from different tables or passages of the source.

Key:
[1] = Anti-Dengue assay, toxicity (XTT) in Huh-7 cells; settings: human
[2] = Anti-Dengue assay, toxicity (XTT) in Vero cells; settings: monkey
Dengue Type 2 = assay: Anti-Dengue Virus Cytoprotection Assay, Dengue Type 2
Human DNA pol γ = molecular target: T1, Human DNA pol γ (Homo sapiens, UniProt P54098); assay: Human DNA Polymerase Inhibition Assay, pol γ; assay type: biochemical
T1 sequence (P54098 1-1239): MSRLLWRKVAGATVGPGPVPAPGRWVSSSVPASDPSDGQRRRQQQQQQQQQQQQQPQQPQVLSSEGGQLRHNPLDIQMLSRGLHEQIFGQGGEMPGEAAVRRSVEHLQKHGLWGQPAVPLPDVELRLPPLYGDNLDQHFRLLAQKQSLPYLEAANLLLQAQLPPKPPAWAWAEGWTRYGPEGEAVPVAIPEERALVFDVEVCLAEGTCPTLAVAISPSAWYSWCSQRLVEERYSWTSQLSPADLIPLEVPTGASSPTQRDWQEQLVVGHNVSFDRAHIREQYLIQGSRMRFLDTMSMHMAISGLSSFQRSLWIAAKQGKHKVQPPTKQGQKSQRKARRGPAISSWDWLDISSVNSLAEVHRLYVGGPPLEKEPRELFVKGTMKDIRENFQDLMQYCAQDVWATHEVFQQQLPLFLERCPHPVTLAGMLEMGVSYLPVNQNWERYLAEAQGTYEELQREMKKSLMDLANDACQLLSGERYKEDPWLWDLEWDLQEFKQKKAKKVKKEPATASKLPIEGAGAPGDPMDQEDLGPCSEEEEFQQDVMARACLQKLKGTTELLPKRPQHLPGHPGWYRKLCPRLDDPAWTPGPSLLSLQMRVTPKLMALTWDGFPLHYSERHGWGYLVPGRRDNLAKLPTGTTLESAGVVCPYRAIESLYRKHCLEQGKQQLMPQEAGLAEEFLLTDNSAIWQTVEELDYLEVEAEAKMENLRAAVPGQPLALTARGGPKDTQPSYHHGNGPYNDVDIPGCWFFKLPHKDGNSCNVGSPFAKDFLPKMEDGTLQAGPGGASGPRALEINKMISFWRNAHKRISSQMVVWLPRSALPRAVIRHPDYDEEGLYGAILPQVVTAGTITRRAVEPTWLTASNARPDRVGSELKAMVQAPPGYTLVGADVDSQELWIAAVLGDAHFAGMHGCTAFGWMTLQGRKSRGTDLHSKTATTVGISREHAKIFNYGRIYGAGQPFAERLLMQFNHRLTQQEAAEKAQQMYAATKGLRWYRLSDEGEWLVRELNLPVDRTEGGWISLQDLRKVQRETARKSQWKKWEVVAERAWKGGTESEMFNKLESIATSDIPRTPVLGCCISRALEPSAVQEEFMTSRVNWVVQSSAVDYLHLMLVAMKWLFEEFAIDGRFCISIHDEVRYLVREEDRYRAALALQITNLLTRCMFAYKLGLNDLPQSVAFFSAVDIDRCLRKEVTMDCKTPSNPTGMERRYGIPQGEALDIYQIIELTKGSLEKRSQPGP

Human DNA pol α = molecular target: T2, Human DNA pol α (Homo sapiens, UniProt P09884); assay: Human DNA Polymerase Inhibition Assay, pol α; assay type: biochemical
T2 sequence (P09884 1-1462): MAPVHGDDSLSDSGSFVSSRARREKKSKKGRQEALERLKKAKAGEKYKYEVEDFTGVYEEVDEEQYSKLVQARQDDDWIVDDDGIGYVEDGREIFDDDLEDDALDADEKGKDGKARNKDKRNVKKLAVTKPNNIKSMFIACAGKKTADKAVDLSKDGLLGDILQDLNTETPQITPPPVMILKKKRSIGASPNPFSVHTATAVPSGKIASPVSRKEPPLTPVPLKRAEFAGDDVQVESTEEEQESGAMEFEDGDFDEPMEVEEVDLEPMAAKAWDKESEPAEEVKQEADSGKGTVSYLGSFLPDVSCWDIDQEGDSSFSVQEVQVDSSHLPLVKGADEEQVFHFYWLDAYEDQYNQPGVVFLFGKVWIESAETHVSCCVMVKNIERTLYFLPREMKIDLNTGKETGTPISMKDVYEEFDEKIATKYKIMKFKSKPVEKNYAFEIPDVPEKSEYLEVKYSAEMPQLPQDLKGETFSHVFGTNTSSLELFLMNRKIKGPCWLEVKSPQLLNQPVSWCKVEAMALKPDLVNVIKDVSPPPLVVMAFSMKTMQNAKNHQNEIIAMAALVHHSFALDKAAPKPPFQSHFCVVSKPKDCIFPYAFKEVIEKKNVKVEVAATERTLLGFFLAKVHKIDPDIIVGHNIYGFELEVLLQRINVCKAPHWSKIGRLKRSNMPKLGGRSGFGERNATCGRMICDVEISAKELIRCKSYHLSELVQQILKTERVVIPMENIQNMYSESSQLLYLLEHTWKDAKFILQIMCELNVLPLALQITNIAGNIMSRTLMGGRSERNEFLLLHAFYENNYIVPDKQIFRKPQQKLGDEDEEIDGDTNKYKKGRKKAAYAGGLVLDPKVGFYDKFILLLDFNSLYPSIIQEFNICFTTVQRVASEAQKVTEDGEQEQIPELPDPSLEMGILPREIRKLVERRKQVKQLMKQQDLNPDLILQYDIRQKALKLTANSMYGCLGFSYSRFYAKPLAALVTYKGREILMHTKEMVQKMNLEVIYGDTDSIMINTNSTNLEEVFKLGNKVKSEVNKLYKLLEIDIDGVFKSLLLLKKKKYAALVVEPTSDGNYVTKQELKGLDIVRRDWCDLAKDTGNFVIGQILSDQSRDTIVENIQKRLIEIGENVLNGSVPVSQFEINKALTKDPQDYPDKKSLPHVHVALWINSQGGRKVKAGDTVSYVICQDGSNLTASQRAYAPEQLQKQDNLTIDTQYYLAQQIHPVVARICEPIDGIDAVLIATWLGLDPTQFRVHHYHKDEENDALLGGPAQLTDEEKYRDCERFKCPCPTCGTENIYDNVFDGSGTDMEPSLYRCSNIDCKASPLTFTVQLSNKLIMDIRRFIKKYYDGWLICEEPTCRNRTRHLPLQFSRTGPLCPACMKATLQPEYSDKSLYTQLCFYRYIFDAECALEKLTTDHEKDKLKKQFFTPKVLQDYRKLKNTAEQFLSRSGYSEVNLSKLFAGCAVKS

Structure (SMILES)	CC50 [1]	CC50 [2]	EC50 (Dengue Type 2; Huh-7, read-out: Dengue Type 2 Huh-7 Cells (EC50 uM))	EC50 (Dengue Type 2; Vero, read-out: Dengue Type 2 Vero Cells (EC50 uM))	IC50 (Human DNA pol γ)	IC50 (Human DNA pol α)
CC(C)OC(=O)[C@H](C)NP(=O)(OC[C@H]1O[C@@H](n2ccc(=O)[nH]c2=S)[C@](C)(O)[C@@H]1O)Oc1ccccc1 (stereo partly drawn) [drawing 474]	> 100 µM	> 100 µM	5.1 µM	2.02 µM	–	–
C[C@@]1(O)[C@H](O)[C@@H](COP(=O)(O)OP(=O)(O)OP(=O)(O)O)O[C@H]1n1ccc(=O)[nH]c1=S	–	–	–	–	> 1000 µM	> 1000 µM
